Reference: PubChem BioAssay AID248 (DTP/NCI, 2004)
“And” between values parts separate entries of the source, which are not always exact repeats. Equal entries are not always repeated. Inconclusive results and toxic doses are left out. Square brackets hold non-standard residues; d marks the D form. Peptide text beside a SMILES is read from it. * marks the point of attachment. ξ: configuration not given here. Cbz = O=C(OCc1ccccc1)*; OBn = c1ccc(CO*)cc1; ξS = NC(CO)C(=O)O

Tested on: L1210 leukemia ip in BDF1 mice, survival T/C
Assay: NCI In Vivo Anticancer Drug Screen. Data for tumor model L1210 Leukemia (intraperitoneal) in B6D2F1 (BDF1) mice
Settings: endpoint: mean survival time, higher = longer survival
In short: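 Tumor cells were implanted, animals were treated, and survival was followed. The result divides the treated measurement by the vehicle-control measurement.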

[1] = dose: 100.0 mg/kg/injection, schedule: Q01DX001 (ip), vehicle: saline
[2] = dose: 200.0 mg/kg/injection, schedule: Q01DX001 (ip), vehicle: saline
[3] = dose: 100.0 mg/kg/injection, schedule: Q01DX009 (ip), vehicle: Klucel (hydroxypropylcellulose) (HPC)
[4] = dose: 200.0 mg/kg/injection, schedule: Q01DX009 (ip), vehicle: Klucel (hydroxypropylcellulose) (HPC)
[5] = dose: 400.0 mg/kg/injection, schedule: Q01DX009 (ip), vehicle: Klucel (hydroxypropylcellulose) (HPC)
[6] = dose: 50.0 mg/kg/injection, schedule: Q01DX001 (ip), vehicle: carboxymethylcellulose (CMC)
[7] = dose: 100.0 mg/kg/injection, schedule: Q01DX001 (ip), vehicle: carboxymethylcellulose (CMC)
[8] = dose: 200.0 mg/kg/injection, schedule: Q01DX001 (ip), vehicle: carboxymethylcellulose (CMC)
[9] = dose: 400.0 mg/kg/injection, schedule: Q01DX001 (ip), vehicle: carboxymethylcellulose (CMC)
[10] = dose: 100.0 mg/kg/injection, schedule: Q04DX003 (ip), vehicle: Klucel (hydroxypropylcellulose) (HPC)
[11] = dose: 200.0 mg/kg/injection, schedule: Q04DX003 (ip), vehicle: Klucel (hydroxypropylcellulose) (HPC)
[12] = dose: 400.0 mg/kg/injection, schedule: Q04DX003 (ip), vehicle: Klucel (hydroxypropylcellulose) (HPC)
[13] = dose: 50.0 mg/kg/injection, schedule: Q01DX009 (ip), vehicle: saline
[14] = dose: 100.0 mg/kg/injection, schedule: Q01DX009 (ip), vehicle: saline
[15] = dose: 200.0 mg/kg/injection, schedule: Q01DX009 (ip), vehicle: saline

Structure (SMILES): Cn1cc(F)c(=O)[nH]c1=O
- T/C (dose: 5.0 mg/kg/injection, schedule: Q01DX Z (ip), vehicle: carboxymethylcellulose (CMC)): 96 % of control
- T/C (dose: 10.0 mg/kg/injection, schedule: Q01DX Z (ip), vehicle: carboxymethylcellulose (CMC)): 100 % of control
- T/C (dose: 20.0 mg/kg/injection, schedule: Q01DX Z (ip), vehicle: carboxymethylcellulose (CMC)): 113 % of control
- T/C (dose: 40.0 mg/kg/injection, schedule: Q01DX Z (ip), vehicle: carboxymethylcellulose (CMC)): 96 % of control

Structure (SMILES): COc1ccc2c(=O)c3c(O)cc(OC)cc3oc2c1
- T/C [1]: 97 % of control
- T/C [2]: 101 % of control
- T/C (dose: 400.0 mg/kg/injection, schedule: Q01DX001 (ip), vehicle: saline): 87 % of control and 90 % of control

Structure (SMILES): O=C(Nc1ccc(Cl)c([N+](=O)[O-])c1)N(CC(O)c1ccccc1)C1CCCCC1 (stereo unspecified)
- T/C [3]: 93 % of control
- T/C [4]: 93 % of control
- T/C [5]: 87 % of control

Structure (SMILES): CCOP(=O)(Nc1ccc2c(c1)Cc1c-2cc(Br)c(NC(C)=O)c1Br)OCC
- T/C [6]: 97 % of control
- T/C [7]: 94 % of control
- T/C [8]: 105 % of control
- T/C [9]: 100 % of control

Structure (SMILES): CCOC(=O)C1(C(=O)O)CC2C(C)C=CC(C)C2C1 (stereo unspecified)
- T/C [10]: 100 % of control
- T/C [11]: 94 % of control
- T/C [12]: 91 % of control

Structure (SMILES): CC(=O)Nc1ccc(/C=N\NC(=O)c2ccco2)cc1
- T/C (dose: 100.0 mg/kg/injection, schedule: Q01DX001 (ip), vehicle: other): 87 % of control
- T/C (dose: 200.0 mg/kg/injection, schedule: Q01DX001 (ip), vehicle: other): 90 % of control
- T/C (dose: 400.0 mg/kg/injection, schedule: Q01DX001 (ip), vehicle: other): 87 % of control

Structure (SMILES): CCc1nccc(=O)[nH]1
- T/C [13]: 102 % of control and 101 % of control
- T/C [14]: 88 % of control and 110 % of control
- T/C (dose: 100.0 mg/kg/injection, schedule: Q04DX003 (ip), vehicle: saline): 94 % of control and 110 % of control
- T/C [15]: 100 % of control and 103 % of control
- T/C (dose: 200.0 mg/kg/injection, schedule: Q04DX003 (ip), vehicle: saline): 89 % of control and 104 % of control

Structure (SMILES): CC(N)C(=O)NC(C(=O)O)C(C)C (stereo unspecified)
- T/C (dose: 100.0 mg/kg/injection, schedule: Q04DX002 (ip), vehicle: saline): 101 % of control and 98 % of control
- T/C (dose: 200.0 mg/kg/injection, schedule: Q04DX002 (ip), vehicle: saline): 101 % of control and 95 % of control
- T/C (dose: 400.0 mg/kg/injection, schedule: Q04DX002 (ip), vehicle: saline): 96 % of control and 95 % of control

Structure (SMILES): CC(C)=C1C2CCC1C(CO)C2CO (stereo unspecified)
- T/C [3]: 95 % of control
- T/C [10]: 102 % of control
- T/C [4]: 102 % of control
- T/C [11]: 100 % of control
- T/C [5]: 104 % of control
- T/C [12]: 96 % of control

Structure (SMILES): c1nc(Sc2ncnc3nc[nH]c23)c2[nH]cnc2n1
- T/C (dose: 50.0 mg/kg/injection, schedule: Q01DX001 (ip), vehicle: saline): 108 % of control
- T/C (dose: 75.0 mg/kg/injection, schedule: Q01DX015 (ip), vehicle: saline): 114 % of control
- T/C [1]: 104 % of control
- T/C (dose: 150.0 mg/kg/injection, schedule: Q01DX015 (ip), vehicle: other): 213 % of control
- T/C [2]: 119 % of control
- T/C (dose: 238.0 mg/kg/injection, schedule: Q01DX001 (ip), vehicle: saline): 115 % of control
- T/C (dose: 300.0 mg/kg/injection, schedule: Q01DX015 (ip), vehicle: other): 176 % of control
- T/C (dose: 356.0 mg/kg/injection, schedule: Q01DX001 (ip), vehicle: saline): 117 % of control
- T/C (dose: 600.0 mg/kg/injection, schedule: Q01DX015 (ip), vehicle: other): 108 % of control
- T/C (dose: 600.0 mg/kg/injection, schedule: Q01DX015 (ip), vehicle: saline): 117 % of control

Structure (SMILES): CCOC(=O)N1C(C)C1C(C)C (stereo unspecified)
- T/C (dose: 62.0 mg/kg/injection, schedule: Q04DX003 (ip), vehicle: carboxymethylcellulose (CMC)): 97 % of control
- T/C (dose: 125.0 mg/kg/injection, schedule: Q04DX003 (ip), vehicle: carboxymethylcellulose (CMC)): 97 % of control
- T/C (dose: 250.0 mg/kg/injection, schedule: Q04DX003 (ip), vehicle: carboxymethylcellulose (CMC)): 94 % of control

Structure (SMILES): CC1=NCC[N-]CC[N-]CCN=C(C)C2CCCC1[N-]2.[Mn+3]
- T/C (dose: 10.0 mg/kg/injection, schedule: Q01DX001 (ip), vehicle: saline): 105 % of control
- T/C (dose: 20.0 mg/kg/injection, schedule: Q01DX001 (ip), vehicle: saline): 102 % of control
- T/C (dose: 40.0 mg/kg/injection, schedule: Q01DX001 (ip), vehicle: saline): 102 % of control

Structure (SMILES): O=c1[nH]ncc(Cl)c1Cl
- T/C (dose: 12.5 mg/kg/injection, schedule: Q01DX009 (ip), vehicle: saline with Tween-80): 92 % of control
- T/C (dose: 25.0 mg/kg/injection, schedule: Q01DX009 (ip), vehicle: saline with Tween-80): 95 % of control
- T/C (dose: 50.0 mg/kg/injection, schedule: Q01DX009 (ip), vehicle: saline with Tween-80): 106 % of control
- T/C (dose: 100.0 mg/kg/injection, schedule: Q01DX009 (ip), vehicle: saline with Tween-80): 87 % of control
- T/C (dose: 200.0 mg/kg/injection, schedule: Q01DX009 (ip), vehicle: saline with Tween-80): 87 % of control

Structure (SMILES): O=c1sc(N=Nc2ccccc2)nn1-c1ccccc1
- T/C [13]: 91 % of control
- T/C [14]: 88 % of control
- T/C [15]: 93 % of control

Structure (SMILES): O=[N+]([O-])c1ccc(NCCNC(c2ccccc2)(c2ccccc2)c2ccccc2)c([N+](=O)[O-])c1
- T/C [13]: 96 % of control
- T/C [1]: 87 % of control
- T/C [14]: 91 % of control
- T/C [2]: 90 % of control
- T/C [15]: 93 % of control

Structure (SMILES): CN1CCc2c3n(c4ccccc24)C(=O)CCC31 (stereo unspecified)
- T/C (dose: 6.25 mg/kg/injection, schedule: Q01DX009 (ip), vehicle: saline): 106 % of control
- T/C (dose: 12.5 mg/kg/injection, schedule: Q01DX009 (ip), vehicle: saline): 101 % of control
- T/C (dose: 25.0 mg/kg/injection, schedule: Q01DX009 (ip), vehicle: saline): 104 % of control

Structure (SMILES): N#Cc1cn(C2OC(CO)C(O)C2O)c2ncnc(N)c12 (stereo unspecified)
- T/C (dose: 0.04 mg/kg/injection, schedule: Q01DX009 (ip), vehicle: saline): 119 % of control
- T/C (dose: 0.08 mg/kg/injection, schedule: Q01DX005 (ip), vehicle: saline): 86 % of control
- T/C (dose: 0.09 mg/kg/injection, schedule: Q01DX009 (ip), vehicle: saline): 107 % of control
- T/C (dose: 0.12 mg/kg/injection, schedule: Q01DX005 (ip), vehicle: saline): 96 % of control

Structure (SMILES): O=C1c2ccccc2C(=O)c2c(Nc3ccc(S(=O)(=O)N(CCO)CCO)cc3)ccc(O)c21
- T/C [1]: 97 % of control
- T/C [2]: 100 % of control

Structure (SMILES): CCc1c(Nc2ccc(C)c(C)c2)[nH]c(N)nc1=S
- T/C (dose: 100.0 mg/kg/injection, schedule: Q01DX Z (ip), vehicle: methylcellulose (MC)): 87 % of control
- T/C (dose: 200.0 mg/kg/injection, schedule: Q01DX Z (ip), vehicle: methylcellulose (MC)): 109 % of control

Structure (SMILES): O=C(CNC(=O)OCc1ccccc1)NC(CO)C(=O)OCc1ccccc1 (stereo not drawn) (Cbz-Gly-[ξS]-OBn)
- T/C [10]: 101 % of control
- T/C [11]: 101 % of control
- T/C [12]: 105 % of control

Structure (SMILES): O=c1[nH]c(=O)n(C2OC(CO)C(O)C2O)cc1O (stereo unspecified)
- T/C (dose: 100.0 mg/kg/injection, schedule: Q01DX001 (ip), vehicle: water): 92 % of control
- T/C (dose: 200.0 mg/kg/injection, schedule: Q01DX001 (ip), vehicle: water): 94 % of control
- T/C (dose: 400.0 mg/kg/injection, schedule: Q01DX001 (ip), vehicle: water): 103 % of control

Structure (SMILES): COC(=O)Cc1c(C(=O)OC)c(O)cc(O)c1C(=O)OC
- T/C [6]: 100 % of control
- T/C [7]: 97 % of control
- T/C [8]: 100 % of control
- T/C [9]: 100 % of control

Structure (SMILES): O=C(Nc1c[nH]c(=O)[nH]c1=O)C(Cl)Cl
- T/C (dose: 16.0 mg/kg/injection, schedule: Q01DX Z (ip), vehicle: methylcellulose (MC)): 91 % of control
- T/C (dose: 31.0 mg/kg/injection, schedule: Q01DX Z (ip), vehicle: methylcellulose (MC)): 95 % of control
- T/C (dose: 50.0 mg/kg/injection, schedule: Q01DX009 (ip), vehicle: Klucel (hydroxypropylcellulose) (HPC)): 103 % of control
- T/C (dose: 62.0 mg/kg/injection, schedule: Q01DX Z (ip), vehicle: methylcellulose (MC)): 93 % of control
- T/C [3]: 104 % of control
- T/C (dose: 125.0 mg/kg/injection, schedule: Q01DX Z (ip), vehicle: methylcellulose (MC)): 90 % of control
- T/C [4]: 117 % of control
